# Assay results: ChEMBL document CHEMBL5325415, “Falcipains: Biochemistry, target validation and structure-activity relationship studies of inhibitors as antimalarials” (Eur J Med Chem, 2023)
# Tests used:
# Falcipain 2 [1] = molecular target: T1, Falcipain 2 (Plasmodium falciparum, UniProt Q9N6S8); experiment: Inhibition of Plasmodium falciparum FP2 using ZFR-AMC as substrate preincubated with enzyme for 10 mins followed by substrate addition and measured for 30 mins by fluorimetric analysis
# T1 sequence (Q9N6S8 whole entry): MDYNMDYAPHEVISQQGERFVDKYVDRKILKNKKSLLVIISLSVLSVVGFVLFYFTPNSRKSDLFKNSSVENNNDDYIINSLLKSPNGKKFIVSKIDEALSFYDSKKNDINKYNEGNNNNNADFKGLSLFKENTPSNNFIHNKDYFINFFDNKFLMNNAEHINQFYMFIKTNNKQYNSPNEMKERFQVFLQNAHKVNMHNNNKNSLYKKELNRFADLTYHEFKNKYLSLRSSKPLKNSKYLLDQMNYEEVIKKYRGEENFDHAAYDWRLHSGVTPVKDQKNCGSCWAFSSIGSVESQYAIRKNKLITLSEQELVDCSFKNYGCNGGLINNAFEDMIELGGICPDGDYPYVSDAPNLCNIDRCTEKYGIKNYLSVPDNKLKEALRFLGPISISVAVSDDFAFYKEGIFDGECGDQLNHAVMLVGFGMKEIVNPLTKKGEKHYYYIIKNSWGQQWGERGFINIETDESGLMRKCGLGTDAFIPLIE
# Plasmodium falciparum [2] = experiment: Antiplasmodial activity against Plasmodium falciparum 3D7 infected in human erythrocytes assessed as growth inhibition measured after 52 hrs by SYBR green dye based assay; assay type: functional, organism-based; details: 3D7, Erythrocyte
# Plasmodium falciparum [3] = experiment: Antimalarial activity against Chloroquine-sensitive Plasmodium falciparum 3D7 infected in human erythrocytes assessed as inhibition of parasite growth incubated for 72 hrs by Giemsa staining based analysis; assay type: functional, organism-based; details: 3D7, Erythrocyte
# Falcipain 2 [4] = molecular target: T1, Falcipain 2; experiment: Inhibition of Plasmodium falciparum FP-2 using Z-Leu-Arg-AMC as substrate pretreated with enzyme for 30 mins followed by substrate addition and measured for 30 mins by spectrofluorometry
# [5] = molecular target: T2, Falcipain 2 (Plasmodium falciparum) (UniProt Q9N6S8); experiment: Inhibition of Plasmodium falciparum FP-2 using Z-Leu-Arg-AMC as substrate at 10 uM pretreated with enzyme for 30 mins followed by substrate addition and measured for 30 mins by spectrofluorometry; details: time 60.0 min
# T2 sequence (whole entry): T1 sequence (Q9N6S8 whole entry)
# Plasmodium falciparum [6] = experiment: Antimalarial activity against Chloroquine-resistant Plasmodium falciparum RKL9 infected in human erythrocytes assessed as inhibition of parasite growth incubated for 72 hrs by Giemsa staining based analysis; assay type: functional, organism-based; details: RKL9, Erythrocyte
# Plasmodium falciparum [7] = experiment: Antimalarial activity against chloroquine-sensitive Plasmodium falciparum 3D7 infected in RBC measured after 24 to 30 hrs by microscopic analysis; assay type: functional, organism-based; details: 3D7, Erythrocyte
# Plasmodium falciparum [8] = experiment: Antimalarial activity against chloroquine-resistant Plasmodium falciparum RKL9 infected in RBC measured after 24 to 30 hrs by microscopic analysis; assay type: functional, organism-based; details: RKL9, Erythrocyte
# Falcipain 2 [9] = molecular target: T1, Falcipain 2; experiment: Inhibition of Plasmodium falciparum FP-2 using Cbz-Phe-Arg-AMC as substrate pretreated with enzyme for 10 mins followed by substrate addition and measured after 10 mins by fluorescence based analysis
# Falcipain 2 [10] = molecular target: T1, Falcipain 2; experiment: Inhibition of Plasmodium falciparum Itg2 trophozite extracts FP-2 using Z-phe-Arg-AMC as substrate pretreated with enzyme for 30 mins followed by substrate addition and measured for 30 mins by spectrofluorometry
# Plasmodium falciparum [11] = experiment: Antiplasmodial activity against Plasmodium falciparum Dd2; assay type: functional, organism-based
# Plasmodium falciparum [12] = experiment: Antiplasmodial activity against Plasmodium falciparum D6; assay type: functional, organism-based
# [13] = Inhibition of Plasmodium vinckei extracts VP-2 using Z-phe-Arg-AMC as substrate pretreated with enzyme for 30 mins followed by substrate addition and measured for 30 mins by spectrofluorometry
# Plasmodium falciparum [14] = experiment: Antiplasmodial activity against Plasmodium falciparum W2; assay type: functional, organism-based
# Plasmodium falciparum [15] = experiment: Antiplasmodial activity against Plasmodium falciparum HB3; assay type: functional, organism-based
# Plasmodium falciparum [16] = experiment: Antiplasmodial activity against Plasmodium falciparum ItG; assay type: functional, organism-based
structure (smiles),measurement,setting,value
Cc1ccc(-n2cc(COc3ccnc4cc(Cl)ccc34)nn2)cc1,IC50,Falcipain 2 [1],26.6 µM
same,EC50,Plasmodium falciparum [2],49.5 µM
N#C/C(=C\c1ccc(O)cc1)c1nc2ccccc2[nH]1,IC50,Plasmodium falciparum [3],47.6 µM
Cc1ccc(NC(=S)N/N=C/c2ccc(O[C@H]3O[C@@H]4O[C@@]5(C)CC[C@H]6[C@H](C)CC[C@@H]([C@H]3C)[C@@]46OO5)cc2)c(C)c1,IC50,Falcipain 2 [4],1.35 µM
C=CCn1c(SCC(=O)Nc2sc3c(c2C(N)=O)CCC3)nc2scc(-c3cccc([N+](=O)[O-])c3)c2c1=O,IC50,Falcipain 2 [4],11.8 µM
same,inhibition,[5],53%
O=C(N[C@H](Cc1c[nH]c2ccccc12)C(=O)NCc1ccc([N+](=O)[O-])cc1)Oc1ccccc1,IC50,Falcipain 2 [4],10 µM
same,inhibition,[5],49.5%
N#C/C(=C\c1cccc(F)c1)c1nc2ccccc2[nH]1,IC50,Plasmodium falciparum [6],53.3 µM
same,IC50,Plasmodium falciparum [3],22.2 µM
O=C(c1cc(-c2ccccc2)nc2ccccc12)N1CCN(S(=O)(=O)c2ccc(Cl)cc2Cl)CC1,IC50,Falcipain 2 [1],4.2 µM
same,EC50,Plasmodium falciparum [2],20 µM
C[C@H]1[C@H](OC(=O)c2ccc(/C=N/NC(=O)Nc3ccccc3F)cc2)O[C@@H]2O[C@@]3(C)CC[C@H]4[C@H](C)CC[C@@H]1[C@@]24OO3,IC50,Falcipain 2 [4],0.47 µM
Fc1ccc(-n2cc(COc3ccnc4cc(Cl)ccc34)nn2)cc1F,IC50,Falcipain 2 [1],25.6 µM
same,EC50,Plasmodium falciparum [2],21.9 µM
COc1ccc(-n2cc(COc3ccnc4cc(Cl)ccc34)nn2)cc1,IC50,Falcipain 2 [1],25.4 µM
same,EC50,Plasmodium falciparum [2],51.7 µM
Cc1ccc(-c2nn(-c3ccccc3)cc2/C=C/c2nnc(-c3ccc(Cl)cc3Cl)o2)cc1,IC50,Plasmodium falciparum [7],0.486 µg/mL
same,IC50,Plasmodium falciparum [8],0.902 µg/mL
same,IC50,Falcipain 2 [9],110 µM
Fc1ccc(-n2cc(COc3ccnc4cc(Cl)ccc34)nn2)cc1Cl,IC50,Falcipain 2 [1],45.1 µM
same,EC50,Plasmodium falciparum [2],406 µM
Fc1ccc(-n2cc(COc3ccnc4cc(Cl)ccc34)nn2)c(F)c1,IC50,Falcipain 2 [1],25.4 µM
same,EC50,Plasmodium falciparum [2],159 µM
C=CCn1c(SCC(=O)Nc2sc3c(c2C(N)=O)CCC3)nc2sc3c(c2c1=O)CCCC3,IC50,Falcipain 2 [4],5.77 µM
same,inhibition,[5],82.2%
Cc1ccc(-c2nn(-c3ccccc3)cc2/C=C/c2nnc(-c3ccc([N+](=O)[O-])cc3)o2)cc1,IC50,Plasmodium falciparum [7],0.486 µg/mL
same,IC50,Plasmodium falciparum [8],1.57 µg/mL
same,IC50,Falcipain 2 [9],16 µM
COC(=O)c1ccc(CNC(=O)[C@@H](Cc2c[nH]c3ccccc23)NC(=O)Oc2ccccc2)cc1,IC50,Falcipain 2 [4],13.3 µM
same,inhibition,[5],32.9%
N#C/C(=C\c1cccc(Br)c1)c1nc2ccccc2[nH]1,IC50,Plasmodium falciparum [6],43.4 µM
same,IC50,Plasmodium falciparum [3],14.4 µM
O=C(c1cc(Cl)nc2ccccc12)N1CCN(c2ccnc3cc(Cl)ccc23)CC1,IC50,Falcipain 2 [1],4.78 µM
same,EC50,Plasmodium falciparum [2],1.05 µM
N#C/C(=C\c1cccc([N+](=O)[O-])c1)c1nc2ccccc2[nH]1,IC50,Plasmodium falciparum [3],64.8 µM
Fc1ccccc1-n1cc(COc2ccnc3cc(Cl)ccc23)nn1,IC50,Falcipain 2 [1],107 µM
same,EC50,Plasmodium falciparum [2],66.6 µM
COc1ccc(-c2nccc3ccc(Cc4ccccc4)cc23)cc1,IC50,Falcipain 2 [10],10 µM
CCOc1cccc(NC(=S)N/N=C/c2ccc(O[C@H]3O[C@@H]4O[C@@]5(C)CC[C@H]6[C@H](C)CC[C@@H]([C@H]3C)[C@@]46OO5)cc2)c1,IC50,Falcipain 2 [4],0.52 µM
CC(=O)Nc1ccc(S(=O)(=O)N2CCN(C(=O)c3cc(-c4ccc(OC(F)(F)F)cc4)nc4ccccc34)CC2)cc1,IC50,Falcipain 2 [1],2.64 µM
same,EC50,Plasmodium falciparum [2],1.43 µM
O=C(N[C@H](Cc1c[nH]c2ccccc12)C(=O)NCc1ccccc1)Oc1ccccc1,IC50,Falcipain 2 [4],29.7 µM
same,inhibition,[5],29.4%
N#C/C(=C\c1ccc([N+](=O)[O-])cc1)c1nc2ccccc2[nH]1,IC50,Plasmodium falciparum [3],68.9 µM
Cc1ccc(-c2nn(-c3ccccc3)cc2/C=C/c2nnc(-c3ccc(Cl)cc3)o2)cc1,IC50,Plasmodium falciparum [7],0.486 µg/mL
same,IC50,Plasmodium falciparum [8],1.57 µg/mL
same,IC50,Falcipain 2 [9],20 µM
Fc1ccc(-c2nn(-c3ccccc3)cc2/C=C/c2nnc(-c3c[nH]c4ccccc34)o2)cc1,IC50,Plasmodium falciparum [8],1.37 µg/mL
NC(=O)c1c(NC(=O)CSc2nc3scc(-c4ccccc4)c3c(=O)n2C2CCCCC2)sc2c1CCC2,IC50,Falcipain 2 [4],1.46 µM
same,inhibition,[5],92.7%
Oc1ccc(-c2nccc3ccc(Cc4ccccc4)cc23)cc1,IC50,Falcipain 2 [10],8 µM
N#C/C(=C\c1cccc(Cl)c1)c1nc2ccccc2[nH]1,IC50,Plasmodium falciparum [3],24.8 µM
C=CCn1c(SCC(=O)Nc2sc3c(c2C(N)=O)CCC3)nc2scc(-c3ccc(Cl)cc3)c2c1=O,IC50,Falcipain 2 [4],2.95 µM
same,inhibition,[5],85.7%
O=[N+]([O-])c1ccc(-n2cc(COc3ccnc4cc(Cl)ccc34)nn2)cc1,IC50,Falcipain 2 [1],16.2 µM
same,EC50,Plasmodium falciparum [2],49.9 µM
CC(C)C[C@H](NC(=O)N1CCOCC1)C(=O)N[C@H](/C=C/S(=O)(=O)c1ccccc1)CCc1ccccc1,IC50,Plasmodium falciparum [11],0.00066 µM
same,IC50,Plasmodium falciparum [12],0.00151 µM
same,IC50,[13],0.2 µM
same,IC50,Plasmodium falciparum [14],0.0012 µM
same,IC50,Plasmodium falciparum [15],0.0016 µM
same,IC50,Plasmodium falciparum [16],0.00103 µM
C=CCn1c(SCC(=O)Nc2sc3c(c2C(N)=O)CCC3)nc2scc(-c3ccccc3)c2c1=O,IC50,Falcipain 2 [4],2.81 µM
same,inhibition,[5],88.7%
C[C@H]1[C@@H](Oc2ccc(/C=N/NC(=S)Nc3ccccc3F)cc2)O[C@@H]2O[C@@]3(C)CC[C@H]4[C@H](C)CC[C@@H]1[C@@]24OO3,IC50,Falcipain 2 [4],2.51 µM
O=C(c1cc(-c2ccccc2)nc2ccccc12)N1CCN(c2cc(=O)[nH]c3ccccc23)CC1,IC50,Falcipain 2 [1],13 µM
same,EC50,Plasmodium falciparum [2],20.2 µM
CCOc1ccc(NC(=O)N/N=C/c2ccc(C(=O)O[C@@H]3O[C@@H]4O[C@@]5(C)CC[C@H]6[C@H](C)CC[C@@H]([C@H]3C)[C@@]46OO5)cc2)cc1,IC50,Falcipain 2 [4],0.29 µM
C(=C\c1cn(-c2ccccc2)nc1-c1ccccc1)/c1nnc(-c2c[nH]c3ccccc23)o1,IC50,Plasmodium falciparum [7],0.245 µg/mL
same,IC50,Plasmodium falciparum [8],0.724 µg/mL
same,IC50,Falcipain 2 [9],7 µM
O=C(N[C@H](/C=C/S(=O)(=O)c1ccccc1)CCc1ccccc1)[C@H](Cc1ccccc1)NC(=O)N1CCOCC1,IC50,Falcipain 2 [10],0.08 µM
same,IC50,[13],0.1 µM
COc1ccc(-c2cc(C(=O)N3CCN(S(=O)(=O)c4ccc(NC(C)=O)cc4)CC3)c3ccccc3n2)cc1,IC50,Falcipain 2 [1],2.14 µM
same,EC50,Plasmodium falciparum [2],0.81 µM
COc1ccc(/C=C(\C#N)c2nc3ccccc3[nH]2)cc1O,IC50,Plasmodium falciparum [6],5.46 µM
same,IC50,Plasmodium falciparum [3],1.61 µM
CC(=O)Nc1ccc(S(=O)(=O)N2CCN(C(=O)c3cc(Cl)nc4ccccc34)CC2)cc1,IC50,Falcipain 2 [1],7.37 µM
same,EC50,Plasmodium falciparum [2],1.95 µM
O=C(Cc1ccccc1)N[C@H](Cc1c[nH]c2ccccc12)C(=O)NCc1ccccc1,IC50,Falcipain 2 [4],39.4 µM
same,inhibition,[5],25.7%
Cc1ccc(NC(=O)N/N=C/c2ccc(O[C@H]3O[C@@H]4O[C@@]5(C)CC[C@H]6[C@H](C)CC[C@@H]([C@H]3C)[C@@]46OO5)cc2)c(C)c1,IC50,Falcipain 2 [4],1.03 µM
C(=C\c1cn(-c2ccccc2)nc1-c1ccccc1)/c1nnc(-c2ccco2)o1,IC50,Plasmodium falciparum [7],0.248 µg/mL
same,IC50,Plasmodium falciparum [8],0.863 µg/mL
same,IC50,Falcipain 2 [9],14 µM
Cc1cc(C)cc(NC(=O)N/N=C/c2ccc(C(=O)O[C@@H]3O[C@@H]4O[C@@]5(C)CC[C@H]6[C@H](C)CC[C@@H]([C@H]3C)[C@@]46OO5)cc2)c1,IC50,Falcipain 2 [4],0.57 µM
C[C@H]1[C@H](OC(=O)c2ccc(/C=N/NC(=O)Nc3ccc(F)cc3)cc2)O[C@@H]2O[C@@]3(C)CC[C@H]4[C@H](C)CC[C@@H]1[C@@]24OO3,IC50,Falcipain 2 [4],0.65 µM
COc1cc2ccnc(-c3ccc(OCc4ccccc4)cc3)c2cc1OC,IC50,Falcipain 2 [10],3 µM
